Results taken from patent US6376666B1 (Nauchno-Issledovatelsky Institut Farmakologii Rossiiskoi …, priority 1994, dated 2002).
Marks after values point to notes of the source that are not given here.

Experiments:
cats = assay: hemodynamics and activity of intact heart in cats under anesthesia; assay type: in vivo; conditions: for Cardiac volume, change from basal level / Heart rate, change from basal level / Mean blood flow accelaration (aortic), change from basal level / Mean blood pressure, change from basal level / Stroke volume, change from basal level: cats
Experimental: The effects of compounds on the hemodynamics and activity of intact heart were studied in cats under anesthesia. The experiments were carried out under conditions of open chest. The phase curve of aortic blood flow was the main index of cardiac activity. The compounds were administered i.v. in physiological solution. The t-Student' test was used to estimate the statistical significance.

[1] = system: ventricular fibrillations; assay: ventricular fibrillation, 7-min occlusion and reperfusion of coronary artery in anesthetized rats; assay type: in vivo; conditions: anesthetized rats, 1 mg/kg i.v., 18 animals
Experimental: The experiments were conducted in male rats weighing 180-240 g and anesthetized with nembutal (60 mg/kg i.v.) with open chest and artificial respiration. The occlusion of the left coronary artery was performed 1-2 min after experiment beginning with following reperfusion after 7 min. During this period time according to literature data [Krzeminski T., Grzyb J., Kurcok A., Brus R.: Pol.J.Pharmacol., 1992, 44, Suppl., p.169-170] the maximum number of ventricular fibrillations (70-100%) were registered. The ECG in the 2nd standard lead was recorded in “Mingograph-81”. The number of ventricular fibrillations during occlusion and reperfusion periods, the life menacing arrhythmia (fibrillation+paroxysmal ventricular tachycardia) and total number of arrhythmias were calculated. The known antiarrhythmic drug bonnecor was used as the reference agent [Grigorieva E. K., Gorbunova V. V. in: “New antiarrhythmic drug—bonnecor (the pharmacology and clinical usage)”, M., 1993, p.64-67]. The compounds were injected i.v. at the following doses: bonnecor—1,0 mg/kg, compound IX—2,0 mg/kg, compound XX—1,0 mg/kg. The control animals were administered with the equivalent volume of physiological solution (1,0 ml/kg). 4 series of experiments were carried out in 80 rats. The results were assessed according to the method of point scale: the absence of arrhythmia—0 point, extrasystole—1 point, paroxysmal ventricular tachycardia—2 points, ventricular fibrillation—3 points, fibrillation observed during the occlusion of coronary vessel—4 points. For statistical analysis the Fisher's exact probability and Wilconson's methods were used.
[Krzeminski T., Grzyb J., Kurcok A., Brus R.: Pol.J.Pharmacol., 1992, 44, Suppl., p.169-170] have shown that 7 min occlusion with following reperfusion of coronary artery in anesthetized rats produced the ventricular fibrillation (68-100%). Defibrotide and prostacycline decreased the number of fibrillations. We have studied the antifibrillator activity of some derivatives of 2-mercaptbenzimidazole in this model with disturbances of heart rhythm. Bonnecor (1,0 mg/kg) was used as the reference drug. It is well known that this agent produces apronouncedantifibrillatoryactivity [Grigorieva E. K., Gorbunova V. V. in: “New antiarrhythmic drug-bonnecor (the pharmacology and clinical usage)”, M., 1993, p.64-67].

[2] = 1.0 mg/kg i.v., after injection
[3] = 2.0 mg/kg i.v., after injection

## CN(C)CCSc1nc2ccccc2n1CCc1ccccc1 [Compound XX, 1-(β-Phenylethyl)-2-[2-(dimethylamino)ethylthio]-benzimidazole]
cats; cats i.v., same doses as bradycardia
  effect on contractile function of heart, in words: slightly enhanced the contractility of myocardium
cats; cats i.v., VIII 1,0, IX 0,5 and 1,0, XX 1,0 and 2,0 mg/kg
  duration of bradycardia after administration: 30 min
cats; cats i.v., VIII 1,0, IX 0,5 and 1,0, XX 1,0 and 2,0 mg/kg, XXIII 1.0, verapamil 0.5 mg/kg
  effect on heart rate, in words: expressed bradycardia
cats; 1.0 mg/kg i.v., after 2 min
  Cardiac volume, change from basal level: +2.5 ± 0.9%
  Heart rate, change from basal level: −4.9 ± 1.5 %
  Mean blood flow accelaration (aortic), change from basal level: −1.4 +1.8%
  Mean blood pressure, change from basal level: ± 5.1 ± 1.7 %
  Stroke volume, change from basal level: +7.9 ± 1.6 %
cats; 1.0 mg/kg i.v., after 5 min
  Cardiac volume, change from basal level: −3.9 ± 1.5%
  Heart rate, change from basal level: −5.2 ± 2.1%
  Mean blood flow accelaration (aortic), change from basal level: −3.6 ± 2.4%
  Mean blood pressure, change from basal level: +2.0 ± 1.0%
  Stroke volume, change from basal level: +1.7 ± 3.4%
cats; 1.0 mg/kg i.v., after 10 min
  Cardiac volume, change from basal level: −3.9 ± 2.8%
  Heart rate, change from basal level: −4.3 ± 1.9%
  Mean blood flow accelaration (aortic), change from basal level: −0.6 ± 2.1%
  Mean blood pressure, change from basal level: +1.7 ± 1.2%
  Stroke volume, change from basal level: +0.6 ± 3.5%
cats; 1.0 mg/kg i.v., after 20 min
  Cardiac volume, change from basal level: −4.1 ± 2.8%
  Heart rate, change from basal level: −5.0 ± 4.2%
  Mean blood flow accelaration (aortic), change from basal level: −2.8 ± 2.6%
  Mean blood pressure, change from basal level: +3.3 ± 2.4%
  Stroke volume, change from basal level: +1.4 ± 3.8%
cats; 1.0 mg/kg i.v., after 30 min
  Cardiac volume, change from basal level: −7.0 ± 3.4%
  Heart rate, change from basal level: −5.0 ± 4.2%
  Mean blood flow accelaration (aortic), change from basal level: −3.2 ± 1.8%
  Mean blood pressure, change from basal level: +0.3 ± 3.0%
  Stroke volume, change from basal level: −0.5 ± 4.4%
cats; [2]
  Heart rate, change from basal level: −7.9 ± 1.7 %
  Mean blood flow accelaration (aortic), change from basal level: +10.7 ± 3.3 %
  Mean blood pressure, change from basal level: −0.9 ± 2.7%
  Stroke volume, change from basal level: +25.2 ± 2.6 %
cats; 2.0 mg/kg i.v., after 2 min
  Cardiac volume, change from basal level: +1.2 ± 2.8%
  Heart rate, change from basal level: −5.2 ± 1.8 %
  Mean blood flow accelaration (aortic), change from basal level: −3.0 ± 3.9%
  Mean blood pressure, change from basal level: ± 4.6 ± 3.5%
  Stroke volume, change from basal level: +6.9 ± 3.1%
cats; 2.0 mg/kg i.v., after 5 min
  Cardiac volume, change from basal level: −0.5 ± 3.1%
  Heart rate, change from basal level: −4.5 ± 1.4 %
  Mean blood flow accelaration (aortic), change from basal level: +1.6 ± 5.1%
  Mean blood pressure, change from basal level: +3.3 ± 2.5%
  Stroke volume, change from basal level: +4.2 ± 3.8%
cats; 2.0 mg/kg i.v., after 10 min
  Cardiac volume, change from basal level: −1.4 ± 3.0%
  Heart rate, change from basal level: −3.1 ± 1.6%
  Mean blood flow accelaration (aortic), change from basal level: −1.0 ± 3.1%
  Mean blood pressure, change from basal level: −1.0 ± 1.8%
  Stroke volume, change from basal level: +1.8 ± 2.1%
cats; 2.0 mg/kg i.v., after 20 min
  Cardiac volume, change from basal level: −4.7 ± 5.2%
  Heart rate, change from basal level: −3.6 ± 1.7%
  Mean blood flow accelaration (aortic), change from basal level: −3.8 ± 4.0%
  Mean blood pressure, change from basal level: −5.3 ± 0.8 %
  Stroke volume, change from basal level: −1.1 ± 5.4%
cats; 2.0 mg/kg i.v., after 30 min
  Cardiac volume, change from basal level: −5.5 ± 5.2%
  Heart rate, change from basal level: −4.0 ± 2.2%
  Mean blood flow accelaration (aortic), change from basal level: −6.2 ± 4.9%
  Mean blood pressure, change from basal level: −9.6 ± 3.5%
  Stroke volume, change from basal level: +1.7 ± 3.9%
cats; [3]
  Cardiac volume, change from basal level: +22.7 ± 6.6 %
  Heart rate, change from basal level: −10.7 ± 2.5 %
  Mean blood flow accelaration (aortic), change from basal level: +22.5 ± 9.3%
  Mean blood pressure, change from basal level: −13.6 ± 5.1%
  Stroke volume, change from basal level: +38.5 ± 10.6 %
[1]; control 15 of 24
  Number of VF (ventricular fibrillations): 7^
[1]; control 22 of 24
  Number of LHA (lethality hazardous arrhythmia): 11*
[1]; control 24 of 24
  Total numbers of arrhyt.: 13**
[1]; control 66
  Severity of arrhythmias: 34* points

## CCOc1ccc2nc(SCCN3CCOCC3)[nH]c2c1 [XII, 2-[2-(Morpholino)ethylthio]-5-ethoxybenzimidazole]
cats; cats i.v., doses of 0,5 mg/kg-2,0 mg/kg
  effect on heart rate, in words: small and short bradycardia
